From patent publication US11655232B2 (Celgene Corporation, priority 2003, dated 2023)
Converted amounts (≈) assume the structure as drawn. Like-named read-outs stand apart in the source and are kept apart here.

Experiments:
[1] = Temperature/relative humidity stress storage; assay type: physicochemical
physchem = details: 25 °C, pH 1.8, aqueous with cosolvent or surfactant or cyclodextrin, thermodynamic from solid
Method: (§1) A solid sample of 400-450 mg was stirred in 50 mL of dissolution medium (HCl buffer, pH 1.8, with 1% sodium lauryl sulfate) using a mechanical stir rod. Aliquots were filtered using 0.2-μm nylon syringe filters and immediately diluted 1 mL→50 mL, then 5 mL→25 mL with dissolution medium in Class A glassware, a final dilution factor of 250.
(§2) Dissolution and solubility samples solutions were analyzed by a Beckman DU 640 single-beam spectrophotometer. A 1.000-cm quartz cuvette and an analysis wavelength of 228.40 nm were utilized. The detector was zeroed with a cuvette filled with dissolution medium.
(§3) XRPD analyses were carried out on a Shimadzu XRD-6000 X-ray powder diffractometer using Cu Kα radiation. The instrument is equipped with a fine focus X-ray tube. The tube power and amperage were set at 40 kV and 40 mA, respectively. The divergence and scattering slits were set at 1° and the receiving slit was set at 0.15 mm. Diffracted radiation was detected by a NaI scintillation detector. A theta-two theta continuous scan at 3°/min (0.4 sec/0.02° step) from 2.5 to 40°2θ was used. A silicon standard was analyzed each day to check the instrument alignment. Samples were packed in an aluminum holder with silicon insert.

[2] = pH 1.8
Method: as §1, §2, §3

Desolvation by heating = assay type: physicochemical; details: about 125° C. for about five minutes
[3] = Moisture sorption/desorption; assay type: physicochemical
Method: Moisture sorption/desorption data were collected on a VTI SGA-100 moisture balance system. For sorption isotherms, a sorption range of 5 to 95% relative humidity (RH) and a desorption range of 95 to 5% RH in 10% RH increments was used for analysis. The sample was not dried prior to analysis. Equilibrium criteria used for analysis were less than 0.0100 weight percent change in 5 minutes with a maximum equilibration time of 3 hours if the weight criterion was not met. Data were not corrected for the initial moisture content of the samples.

[4] = Intrinsic dissolution (Woods apparatus); assay type: physicochemical
Method: Dissolution experiments were carried out in a VanKel VK6010-8 dissolution apparatus equipped with a VK650A heater/circulator. An intrinsic dissolution apparatus (Woods apparatus) was used. Samples were compressed at 1.5 metric tons (1000 psi) for 1 min using the Woods apparatus in a hydraulic press, giving a sample surface of 0.50 cm^2. […] The medium was degassed by vacuum filtration through a 0.22-μm nylon filter disk and maintained at 37° C. The apparatus was rotated at 50 rpm for each experiment. Aliquots were filtered immediately using 0.2-μm nylon syringe filters. In some cases, the undissolved solids were recovered and analyzed by X-ray powder diffraction (XRPD).
Diffracted radiation was detected by a NaI scintillation detector.

form after stress storage ([1]; seven days at room temperature/0% RH): can convert to a new form, Form H | Solubility (physchem): 4.7 mg/mL (≈ 18.1 mM) | Solubility [2]: 4.7 mg/mL (≈ 18.1 mM) | form after heating (desolvation) (Desolvation by heating): can convert to Form B | weight lost from start to finish ([3]; at 5% relative humidity after drying from 95% back down to 5%): about 0.0528 % by weight | Cumulative Amount Dissolved per Unit Area ([4]; Experiment #1, 5 min): 2.70 mg/cm2 | Cumulative Amount Dissolved per Unit Area ([4]; Experiment #1, 10 min): 4.13 mg/cm2 | Cumulative Amount Dissolved per Unit Area ([4]; Experiment #1, 20 min): 6.96 mg/cm2 | Cumulative Amount Dissolved per Unit Area ([4]; Experiment #1, 30 min): 9.60 mg/cm2 | Cumulative Amount Dissolved per Unit Area ([4]; Experiment #1, 45 min): 12.57 mg/cm2 | Cumulative Amount Dissolved per Unit Area ([4]; Experiment #1, 60 min): 15.16 mg/cm2 | Cumulative Amount Dissolved per Unit Area ([4]; Experiment #1, 90 min): 20.82 mg/cm2 | Cumulative Amount Dissolved per Unit Area ([4]; Experiment #2, 5 min): 3.06 mg/cm2 | Cumulative Amount Dissolved per Unit Area ([4]; Experiment #2, 10 min): 4.31 mg/cm2 | Cumulative Amount Dissolved per Unit Area ([4]; Experiment #2, 20 min): 11.40 mg/cm2 | Cumulative Amount Dissolved per Unit Area ([4]; Experiment #2, 30 min): 11.93 mg/cm2 | Cumulative Amount Dissolved per Unit Area ([4]; Experiment #2, 45 min): 14.72 mg/cm2 | Cumulative Amount Dissolved per Unit Area ([4]; Experiment #2, 60 min): 18.52 mg/cm2 | Cumulative Amount Dissolved per Unit Area ([4]; Experiment #2, 90 min): 26.24 mg/cm2 | Cumulative Amount Dissolved per Unit Area ([4]; Experiment #2, 120 min): 33.56 mg/cm2 | Cumulative Amount Dissolved per Unit Area ([4]; Experiment #2, 150 min): 40.82 mg/cm2 | dissolution rates (estimated) ([4]; HCl buffer pH 1.8, 1% sodium lauryl sulfate): 0.23 mg/cm²/min | Final Form of undissolved solids after intrinsic dissolution (XRPD) ([4]; HCl buffer pH 1.8, 1% sodium lauryl sulfate, 37° C.): did not change | Average Intrinsic Dissolution Rate ([4]; average of experiments #1 and #2): 0.23 mg per cm^2 per minute | Intrinsic Dissolution #1 (rate) ([4]; experiment #1, 900 mL HCl buffer pH 1.8, 1% sodium lauryl sulfate, 37° C., 50 rpm): 0.21 mg per cm^2 per minute | Intrinsic Dissolution #2 (rate) ([4]; experiment #2, HCl buffer pH 1.8, 1% sodium lauryl sulfate, 37° C., 50 rpm): 0.25 mg per cm^2 per minute
SMILES: Nc1cccc2c1CN(C1CCC(=O)NC1=O)C2=O (stereo not shown) [Form E, 3-(4-amino-1-oxo-1,3 dihydro-isoindol-2-yl)-piperidine-2,6-dione]
form after stress storage ([1]; about 85 days, room temperature/0% RH and 40° C./93% RH): typically does not convert to a different form | weight gain on moisture sorption ([3]; from 5 to 95% relative humidity): does not exhibit a significant weight change
